Test results reported in patent publication US20260242391A1 (priority 2023, published 2026).
Blank lines part the entries; values can stand above or below the compound they belong to.

Tests used:
[1] = test system: HL-60; assay: HL-60 differentiation potency; type: cell-based; settings: Homo sapiens
[2] = in vitro; settings: human

SMILES: C[C@@H]1CC[C@H]2[C@@H](C)C(OCc3ccc(C(=O)O)cc3F)O[C@@H]3O[C@@]4(C)CC[C@@H]1[C@]32OO4 (stereo in doubt) [Compound 45, 3-fluoro-4-((((3R,5aS,6R,8aS, 9R,10S,12R, 12aR)-3,6,9-trimethyldeca-hydro-12H-3,12-epoxy[1,2]dioxepino[4,3-i]isochromen-10-yl)oxy)methyl) benzoic acid]
- EC50 [1]: 662 nM
- IC50 [2]: > 20000 nM

SMILES: C[C@H]1[C@@H](Oc2ccc(CC(=O)O)cc2F)O[C@@H]2O[C@@]3(C)CC[C@H]4[C@H](C)CC[C@@H]1[C@@]24OO3 [Compound 9, 2-(3-fluoro-4-(((3R,5aS,6R, 8aS,9R,10S,12R, 12aR)-3,6,9-trimethyldeca-hydro-12H-3,12-epoxy[1,2]dioxepino[4,3-i]isochromen-10-yl)oxy)phenyl) acetic acid]
- EC50 [1]: 59.3 nM
- IC50 [2]: > 20000 nM

SMILES: C[C@H]1[C@@H](OCCCc2ccc(C(=O)O)cc2)O[C@@H]2O[C@@]3(C)CC[C@H]4[C@H](C)CC[C@@H]1[C@@]24OO3 [Compound 10, 4-(3-(((3R,5aS,6R, 8aS,9R,10S,12R, 12aR)-3,6,9-trimethyldeca-hydro-12H-3,12-epoxy[1,2]dioxepino[4,3-i]isochromen-10-yl)oxy)propyl) benzoic acid]
- EC50 [1]: 63.8 nM
- IC50 [2]: > 10000 nM

SMILES: C[C@H]1[C@@H](OC[C@H]2CC[C@@H](C(=O)O)CC2)O[C@@H]2O[C@@]3(C)CC[C@H]4[C@H](C)CC[C@@H]1[C@@]24OO3 [Compound 11, (1R,4s)-4-((((3R,5aS,6R,8aS, 9R,10S,12R, 12aR)-3,6,9-trimethyldeca-hydro-12H-3,12-epoxy[1,2]dioxepino[4,3-i]isochromen-10-yl)oxy)methyl) cyclohexane-1-carboxylic acid]
- EC50 [1]: 87.4 nM
- IC50 [2]: > 20000 nM

SMILES: C[C@H]1[C@H](Oc2ccc(CC(=O)O)cc2)O[C@@H]2O[C@@]3(C)CC[C@H]4[C@H](C)CC[C@@H]1[C@@]24OO3 [Compound 12, 2-(4-(((3R,5aS, 6R,8aS,9R,10R, 12R,12aR)-3,6,9-trimethyldeca-hydro-12H-3,12-epoxy[1,2]dioxepino[4,3-i]isochromen-10-yl)oxy)phenyl) acetic acid]
- EC50 [1]: 92.4 nM
- IC50 [2]: > 20000 nM

SMILES: C[C@H]1[C@@H](OCc2ccc(C(=O)O)nc2)O[C@@H]2O[C@@]3(C)CC[C@H]4[C@H](C)CC[C@@H]1[C@@]24OO3 [Compound 13, 5-((((3R,5aS,6R, 8aS,9R,10S,12R, 12aR)-3,6,9-trimethyldeca-hydro-12H-3,12-epoxy[1,2]dioxepino[4,3-i]isochromen-10-yl)oxy)methyl) picolinic acid]
- EC50 [1]: 88.9 nM
- IC50 [2]: 1420 nM

SMILES: C[C@H]1[C@@H](OCc2ccnc(C(=O)O)c2)O[C@@H]2O[C@@]3(C)CC[C@H]4[C@H](C)CC[C@@H]1[C@@]24OO3 [Compound 15, 4-((((3R,5aS,6R, 8aS,9R,10S,12R, 12aR)-3,6,9-trimethyldeca-hydro-12H-3,12-epoxy[1,2]dioxepino[4,3-i]isochromen-10-yl)oxy)methyl) picolinic acid]
- EC50 [1]: 93.1 nM
- IC50 [2]: 2550 nM

SMILES: C[C@H]1[C@@H](Oc2ccc(CC(=O)O)cc2Cl)O[C@@H]2O[C@@]3(C)CC[C@H]4[C@H](C)CC[C@@H]1[C@@]24OO3 [Compound 16, 2-(3-chloro-4-(((3R,5aS,6R,8aS, 9R,10S,12R, 12aR)-3,6,9-trimethyldeca-hydro-12H-3,12-epoxy[1,2]dioxepino[4,3-i]isochromen-10-yl)oxy)phenyl) acetic acid]
- EC50 [1]: 94.8 nM
- IC50 [2]: > 10000 nM

SMILES: C[C@H]1[C@H](N(C)CCS(C)(=O)=O)O[C@@H]2O[C@@]3(C)CC[C@H]4[C@H](C)CC[C@@H]1[C@@]24OO3 [Compound 17, (3R,5aS,6R,8aS, 9R,10R,12R, 12aR)-N,3,6,9-tetramethyl-N-(2-(methylsulfonyl)ethyl)decahydro-12H-3,12-epoxy [1,2]dioxepino [4,3-i] isochromen-10-amine]
- EC50 [1]: 95.5 nM
- IC50 [2]: 243 nM

SMILES: C[C@H]1[C@@H](OCc2ccc(S(N)(=O)=O)cc2)O[C@@H]2O[C@@]3(C)CC[C@H]4[C@H](C)CC[C@@H]1[C@@]24OO3 [Compound 18, 4-((((3R,5aS,6R, 8aS,9R,10S,12R, 12aR)-3,6,9-trimethyldeca-hydro-12H-3,12-epoxy[1,2]dioxepino[4,3-i]isochromen-10-yl)oxy)methyl) benzene-sulfonamide]
- EC50 [1]: 99 nM
- IC50 [2]: 2250 nM

SMILES: C[C@H]1[C@@H](OCc2ccc(C#N)cc2)O[C@@H]2O[C@@]3(C)CC[C@H]4[C@H](C)CC[C@@H]1[C@@]24OO3 [Compound 19, 4-((((3R,5aS,6R, 8aS,9R,10S,12R, 12aR)-3,6,9-trimethyldeca-hydro-12H-3,12-epoxy[1,2]dioxepino[4,3-i]isochromen-10-yl)oxy)methyl) benzonitrile]
- EC50 [1]: 104 nM
- IC50 [2]: 138 nM

SMILES: C[C@H]1[C@@H](Oc2cccc(CC(=O)O)c2)O[C@@H]2O[C@@]3(C)CC[C@H]4[C@H](C)CC[C@@H]1[C@@]24OO3 [Compound 20, 2-(3-(((3R,5aS,6R, 8aS,9R,10S,12R, 12aR)-3,6,9-trimethyldeca-hydro-12H-3,12-epoxy[1,2]dioxepino[4,3-i]isochromen-10-yl)oxy)phenyl) acetic acid]
- EC50 [1]: 116 nM
- IC50 [2]: 8330 nM

SMILES: C[C@H]1[C@H](OCCCc2ccc(C(=O)O)cc2)O[C@@H]2O[C@@]3(C)CC[C@H]4[C@H](C)CC[C@@H]1[C@@]24OO3 [Compound 21, 4-(3-(((3R,5aS,6R,8aS, 9R,10R,12R, 12aR)-3,6,9-trimethyldeca-hydro-12H-3,12-epoxy[1,2]dioxepino[4,3-i]isochromen-10-yl)oxy)propyl) benzoic acid]
- EC50 [1]: 123 nM
- IC50 [2]: > 20000 nM

SMILES: C[C@H]1[C@@H](Oc2ccc(CC(=O)O)c(F)c2F)O[C@@H]2O[C@@]3(C)CC[C@H]4[C@H](C)CC[C@@H]1[C@@]24OO3 [Compound 23, 2-(2,3-difluoro-4-(((3R,5aS,6R,8aS, 9R,10S,12R, 12aR)-3,6,9-trimethyldeca-hydro-12H-3,12-epoxy[1,2]dioxepino[4,3-i]isochromen-10-yl)oxy)phenyl) acetic acid]
- EC50 [1]: 192 nM
- IC50 [2]: 15000 nM

SMILES: C[C@H]1[C@@H](OCc2ccc(C(=O)O)c(F)c2)O[C@@H]2O[C@@]3(C)CC[C@H]4[C@H](C)CC[C@@H]1[C@@]24OO3 [Compound 24, 2-fluoro-4-((((3R,5aS,6R,8aS, 9R,10S,12R, 12aR)-3,6,9-trimethyldeca-hydro-12H-3,12-epoxy[1,2]dioxepino[4,3-i]isochromen-10-yl)oxy)methyl) benzoic acid]
- EC50 [1]: 210 nM
- IC50 [2]: > 20000 nM

More lines, now with the values ahead:

- EC50 [1]: 11.1 nM
- IC50 [2]: 10.6 nM
SMILES: C[C@H]1[C@@H](OCc2ccc3c(c2)OC(F)(F)O3)O[C@@H]2O[C@@]3(C)CC[C@H]4[C@H](C)CC[C@@H]1[C@@]24OO3 [Compound 1, (3R,5aS,6R,8aS, 9R,10S,12R, 12aR)-10-((2,2-difluorobenzo[d] [1,3]dioxol-5-yl)methoxy)-3,6,9-trimethyldeca-hydro-12H-3,12-epoxy[1,2] dioxepino[4,3-i]isochromene]

- EC50 [1]: 41.3 nM
- IC50 [2]: 58.5 nM
SMILES: C[C@H]1[C@H](OCc2ccc(-c3nn[nH]n3)cc2)O[C@@H]2O[C@@]3(C)CC[C@H]4[C@H](C)CC[C@@H]1[C@@]24OO3 [Compound 2, 5-(4-((((3R,5aS,6R, 8aS,9R,10R,12R, 12aR)-3,6,9-trimethyldeca-hydro-12H-3,12-epoxy[1,2]dioxepino[4,3-i]isochromen-10-yl)oxy)methyl)phenyl)-2H-tetrazole]

- EC50 [1]: 42.3 nM
- IC50 [2]: > 20000 nM
SMILES: COc1cc(CC(=O)O)ccc1O[C@H]1O[C@@H]2O[C@@]3(C)CC[C@H]4[C@H](C)CC[C@@H]([C@H]1C)[C@@]24OO3 [Compound 3, 2-(3-methoxy-4-(((3R,5aS,6R, 8aS,9R,10S,12R, 12aR)-3,6,9-trimethyldeca-hydro-12H-3,12-epoxy[1,2]dioxepino[4,3-i]isochromen-10-yl)oxy)phenyl) acetic acid]

- EC50 [1]: 42.8 nM
- IC50 [2]: 101 nM
SMILES: C[C@H]1[C@H](N2CC(S(C)(=O)=O)C2)O[C@@H]2O[C@@]3(C)CC[C@H]4[C@H](C)CC[C@@H]1[C@@]24OO3 [Compound 4, 3-(methylsulfonyl)-1-((3R,5aS,6R, 8aS,9R,10R, 12R,12aR)-3,6,9-trimethyldeca-hydro-1H-3,12-epoxy[1,2]dioxepino[4,3-i]isochromen-10-yl)azetidine]

- EC50 [1]: 52.2 nM
- IC50 [2]: 2880 nM
SMILES: C[C@H]1[C@@H](OCc2ccc(C(=O)NO)cc2)O[C@@H]2O[C@@]3(C)CC[C@H]4[C@H](C)CC[C@@H]1[C@@]24OO3 [Compound 5, N-hydroxy-4-((((3R,5aS,6R,8aS, 9R,10S,12R, 12aR)-3,6,9-trimethyldeca-hydro-12H-3,12-epoxy[1,2]dioxepino[4,3-i]isochromen-10-yl)oxy)methyl) benzamide]

- EC50 [1]: 53.2 nM
- IC50 [2]: 50 nM
SMILES: C[C@H]1[C@H](OCc2ccc3c(c2)OC(F)(F)O3)O[C@@H]2O[C@@]3(C)CC[C@H]4[C@H](C)CC[C@@H]1[C@@]24OO3 [Compound 6, (3R,5aS,6R,8aS, 9R,10R,12R, 12aR)-10-((2,2-difluorobenzo [d][1,3]dioxol-5-yl)methoxy)-3,6,9-trimethyldeca-hydro-12H-3,12-epoxy[1,2] dioxepino[4,3-i] isochromene]

- EC50 [1]: 54.6 nM
- IC50 [2]: 192 nM
SMILES: C[C@H]1[C@H](OCc2ccc(C#N)cc2)O[C@@H]2O[C@@]3(C)CC[C@H]4[C@H](C)CC[C@@H]1[C@@]24OO3 [Compound 7, 4-((((3R,5aS,6R, 8aS,9R,10R,12R, 12aR)-3,6,9-trimethyldeca-hydro-12H-3,12-epoxy[1,2]dioxepino[4,3-i]isochromen-10-yl)oxy)methyl) benzonitrile]

- EC50 [1]: 57.7 nM
- IC50 [2]: > 20000 nM
SMILES: Cc1cc(CC(=O)O)ccc1O[C@H]1O[C@@H]2O[C@@]3(C)CC[C@H]4[C@H](C)CC[C@@H]([C@H]1C)[C@@]24OO3 [Compound 8, 2-(3-methyl-4-(((3R,5aS,6R,8aS, 9R,10S,12R, 12aR)-3,6,9-trimethyldeca-hydro-12H-3,12-epoxy[1,2]dioxepino[4,3-i]isochromen-10-yl)oxy)phenyl) acetic acid]
